Results published in publication PMC11435058, “Synthesis of New Thiazole-Privileged Chalcones as Tubulin Polymerization Inhibitors with Potential Anticancer Activities” (Pharmaceuticals, 2024).
Read-outs that look alike come from different tables or passages of the source.

Assays:
OVCAR-5 = test: NCI-60 anticancer screen (SRB; single dose and five doses); details: Homo sapiens
HOP-92 = test: as above; details: Homo sapiens
NCI/ADR-RES = test: as above; details: Homo sapiens
COLO 205 = test: as above; details: Homo sapiens
UACC-257 = test: as above; details: Homo sapiens
[1] = test system: 60 human tumor cell lines panel; test: NCI-60 anticancer screen, whole panel (means and ranges over the cell lines); assay type: cell-based; details: for activity at 10 µM: Homo sapiens, 48 h, dose of 10 μM
HL-60(TB) = test: NCI-60 anticancer screen (SRB; single dose and five doses); details: Homo sapiens
T-47D = test: as above; details: Homo sapiens, T47D
MOLT-4 = test: as above; details: Homo sapiens
HT29 = test: as above; details: Homo sapiens
MCF7 = test: as above; details: Homo sapiens
ACHN = test: as above; details: Homo sapiens
SK-MEL-5 = test: as above; details: Homo sapiens
CCRF-CEM = test: NCI-60 anticancer screen (SRB; single dose 10 μM and five doses); details: Homo sapiens
HCT-116 = test: NCI-60 anticancer screen (SRB; single dose and five doses); details: Homo sapiens
K-562 = test: as above; details: Homo sapiens
PC-3 = test: as above; details: Homo sapiens
KM12 = test: as above; details: Homo sapiens
LOX IMVI = test: as above; details: Homo sapiens
DU-145 = test: as above; details: Homo sapiens
MDA-MB-468 = test: as above; assay type: cell-based, human
Protocol: The methodology of the NCI anticancer screening has been described in detail elsewhere (http://www.dtp.nci.nih.gov). For detailed information, see Appendix A in the Supplementary Materials.
4.2.1. Screening of the anticancer activity against a panel of 60 cell Lines.
The methodology of the NCI anticancer screening has been described in detail elsewhere (http://www.dtp.nci.nih.gov.) Briefly, the primary anticancer assay was performed at approximately 60 human tumor cell lines panel derived from nine neoplastic diseases, in accordance with the protocol of the Drug Evaluation Branch, National Cancer Institute, Bethesda. Tested compounds were added to the culture at a single concentration (10μM) and the cultures were incubated for 48 h. End -point determinations were made with a protein binding dye, SRB. Results for each tested compound was reported as the percent of growth of the treated cells when compared to the untreated control cells. The percentage growth was evaluated spectrophotometrically versus controls not treated with test agents. […]

EKVX = test: as above; details: Homo sapiens
UACC-62 = test: as above; details: Homo sapiens
SK-MEL-28 = test: as above; details: Homo sapiens
A498 = test: as above; details: Homo sapiens
[2] = 48 h, read-out: Growth Percentage
[3] = five doses, mean graph midpoint over all cell lines

Cc1[nH]c(=S)sc1C(=O)/C=C/c1ccc(Cl)cc1 [2f, (E)-3-(4-Chlorophenyl)-1-(4-Methyl-2-Thioxo-2,3-Dihydrothiazol-5-yl)Prop-2-En-1-One]
GI50 (OVCAR-5; OVCAR-5): 17.8 µM | IC50 (OVCAR-5; OVCAR-5): 32.4 µM | activity at 10 µM (OVCAR-5; OVCAR-5, 48 h, read-out: Growth Percentage): 50.8% | CC50 (OVCAR-5; OVCAR-5, read-out: LC50): 60.3 µM | IC (TGI) (OVCAR-5; OVCAR-5, read-out: TGI): 33.1 µM | GI50 (HOP-92; HOP-92): 11.5 µM | IC50 (HOP-92; HOP-92): 30.2 µM | activity at 10 µM (HOP-92; HOP-92, 48 h, read-out: Growth Percentage): 34.8% | CC50 (HOP-92; HOP-92, read-out: LC50): 63.1 µM | IC (TGI) (HOP-92; HOP-92, read-out: TGI): 26.9 µM | GI50 (NCI/ADR-RES): 3.72 µM | IC50 (NCI/ADR-RES): 7.08 µM | activity at 10 µM (NCI/ADR-RES; [2]): -8.39% | CC50 (NCI/ADR-RES; read-out: LC50): 77.6 µM | IC (TGI) (NCI/ADR-RES; read-out: TGI): 17.4 µM | GI50 (COLO 205; COLO 205): 19.1 µM | IC50 (COLO 205; COLO 205): 33.9 µM | activity at 10 µM (COLO 205; COLO 205, 48 h, read-out: Growth Percentage): 78.2% | CC50 (COLO 205; COLO 205, read-out: LC50): 74.1 µM | IC (TGI) (COLO 205; COLO 205, read-out: TGI): 38 µM | GI50 (UACC-257; UACC-257): 13.8 µM | IC50 (UACC-257; UACC-257): 26.9 µM | activity at 10 µM (UACC-257; UACC-257, 48 h, read-out: Growth Percentage): 66.8% | CC50 (UACC-257; UACC-257, read-out: LC50): 56.2 µM | IC (TGI) (UACC-257; UACC-257, read-out: TGI): 27.5 µM | activity at 10 µM ([1]; mean over the tested cell lines, read-out: Mean growth percentage): 23.7% | activity at 10 µM ([1]; range over the cell lines, read-out: growth percentages against most of the tested cells (lowest to highest)): -48.1 to 106% | Log10GI50 _MID [1, 3]: -5.13 Molar | Log10LC50 _MID [1, 3]: -4.23 Molar | Log10TGI _MID [1, 3]: -4.63 Molar | GI50 (HL-60(TB); HL-60): 3.55 µM | IC50 (HL-60(TB); HL-60): 5.89 µM | activity at 10 µM (HL-60(TB); HL-60, 48 h, read-out: Growth Percentage): -0.98% | CC50 (HL-60(TB); HL-60, read-out: LC50): > 100 µM | IC (TGI) (HL-60(TB); HL-60, read-out: TGI): 38 µM | GI50 (T-47D): 3.47 µM | IC50 (T-47D): 14.1 µM | activity at 10 µM (T-47D; [2]): 1.38% | CC50 (T-47D; read-out: LC50): 81.3 µM | IC (TGI) (T-47D; read-out: TGI): 19.1 µM | GI50 (MOLT-4; MOLT-4): 14.5 µM | IC50 (MOLT-4; MOLT-4): 24.6 µM | activity at 10 µM (MOLT-4; MOLT-4, 48 h, read-out: Growth Percentage): 10.2% | CC50 (MOLT-4; MOLT-4, read-out: LC50): > 100 µM | IC (TGI) (MOLT-4; MOLT-4, read-out: TGI): 79.4 µM | GI50 (HT29; HT-29): 6.76 µM | IC50 (HT29; HT-29): 9.55 µM | activity at 10 µM (HT29; HT-29, 48 h, read-out: Growth Percentage): 31.2% | CC50 (HT29; HT-29, read-out: LC50): 53.7 µM | IC (TGI) (HT29; HT-29, read-out: TGI): 20.9 µM | GI50 (MCF7; MCF7): 3.16 µM | IC50 (MCF7; MCF7): 4.68 µM | activity at 10 µM (MCF7; MCF7, 48 h, read-out: Growth Percentage): 4.86% | CC50 (MCF7; MCF7, read-out: LC50): 43.6 µM | IC (TGI) (MCF7; MCF7, read-out: TGI): 13.2 µM | GI50 (ACHN): 13.8 µM | IC50 (ACHN): 24 µM | activity at 10 µM (ACHN; [2]): 34.6% | CC50 (ACHN; read-out: LC50): 51.3 µM | IC (TGI) (ACHN; read-out: TGI): 26.9 µM | GI50 (SK-MEL-5; SK-MEL-5): 11.2 µM | IC50 (SK-MEL-5; SK-MEL-5): 20.4 µM | activity at 10 µM (SK-MEL-5; SK-MEL-5, 48 h, read-out: Growth Percentage): 28% | CC50 (SK-MEL-5; SK-MEL-5, read-out: LC50): 49 µM | IC (TGI) (SK-MEL-5; SK-MEL-5, read-out: TGI): 23.4 µM | GI50 (CCRF-CEM): 2.88 µM | activity at 10 µM (CCRF-CEM; [2]): 3.18% | IC50 (CCRF-CEM; five doses): 2.88 µM | IC50 (CCRF-CEM; five-dose, Leukemia CCRF-CEM): 3.98 µM | IC (TGI) (CCRF-CEM; read-out: TGI): 11.2 µM | GI50 (HCT-116; HCT-116): 6.61 µM | IC50 (HCT-116; HCT-116): 7.94 µM | activity at 10 µM (HCT-116; HCT-116, 48 h, read-out: Growth Percentage): 6.98% | CC50 (HCT-116; HCT-116, read-out: LC50): 74.1 µM | IC (TGI) (HCT-116; HCT-116, read-out: TGI): 24.6 µM | GI50 (K-562; K562): 3.89 µM | IC50 (K-562; K562): 4.68 µM | activity at 10 µM (K-562; K562, 48 h, read-out: Growth Percentage): 7.94% | CC50 (K-562; K562, read-out: LC50): > 100 µM | IC (TGI) (K-562; K562, read-out: TGI): > 100 µM | GI50 (PC-3; PC-3): 5.37 µM | IC50 (PC-3; PC-3): 9.77 µM | CC50 (PC-3; PC-3, read-out: LC50): 81.3 µM | IC (TGI) (PC-3; PC-3, read-out: TGI): 23.4 µM | GI50 (KM12; KM12): 4.17 µM | IC50 (KM12; KM12): 8.13 µM | activity at 10 µM (KM12; KM12, 48 h, read-out: Growth Percentage): 6.77% | CC50 (KM12; KM12, read-out: LC50): 45.7 µM | IC (TGI) (KM12; KM12, read-out: TGI): 16.6 µM | GI50 (LOX IMVI): 3.39 µM | IC50 (LOX IMVI): 4.47 µM | activity at 10 µM (LOX IMVI; [2]): -48.1% | CC50 (LOX IMVI; read-out: LC50): 38 µM | IC (TGI) (LOX IMVI; read-out: TGI): 12 µM | GI50 (DU-145; DU-145): 4.9 µM | IC50 (DU-145; DU-145): 8.91 µM | activity at 10 µM (DU-145; DU-145, 48 h, read-out: Growth Percentage): 7.29% | CC50 (DU-145; DU-145, read-out: LC50): 42.7 µM | IC (TGI) (DU-145; DU-145, read-out: TGI): 17.4 µM | activity at 10 µM (MDA-MB-468; Homo sapiens, 48 h, MDA-MB-468, dose of 10 μM, read-out: Growth Percentage): -21.2% | IC50 (MDA-MB-468; Homo sapiens, MDA-MB-468, MDA-MB-468, Breast Cancer, five dose): 12 µM | IC50 (MDA-MB-468; Homo sapiens, MDA-MB-468, MDA-MB-468, five doses): 2.51 µM | GI50 (MDA-MB-468; Homo sapiens, MDA-MB-468, Breast Cancer, five dose): 2.51 µM | CC50 (MDA-MB-468; Homo sapiens, MDA-MB-468, Breast Cancer, five dose, read-out: LC50 (the source's name)): 30.2 µM | TGI (MDA-MB-468; MDA-MB-468, Breast Cancer, five dose): 8.32 µM | GI50 (EKVX): 12.9 µM | IC50 (EKVX): 24 µM | activity at 10 µM (EKVX; [2]): 41% | CC50 (EKVX; read-out: LC50): 52.5 µM | IC (TGI) (EKVX; read-out: TGI): 26.3 µM | GI50 (UACC-62; UACC-62): 9.77 µM | IC50 (UACC-62; UACC-62): 17 µM | activity at 10 µM (UACC-62; UACC-62, 48 h, read-out: Growth Percentage): 33.9% | IC (TGI) (UACC-62; UACC-62, read-out: TGI): 22.4 µM | GI50 (SK-MEL-28; SK-MEL-28): 14.5 µM | IC50 (SK-MEL-28; SK-MEL-28): 26.3 µM | activity at 10 µM (SK-MEL-28; SK-MEL-28, 48 h, read-out: Growth Percentage): 45.7% | CC50 (SK-MEL-28; SK-MEL-28, read-out: LC50): 53.7 µM | IC (TGI) (SK-MEL-28; SK-MEL-28, read-out: TGI): 28.2 µM | GI50 (A498; A498): 15.8 µM | IC50 (A498; A498): 30.9 µM | activity at 10 µM (A498; A498, 48 h, read-out: Growth Percentage, A498, dose of 10 μM): 106% | CC50 (A498; A498, read-out: LC50): 56.2 µM | IC (TGI) (A498; A498, read-out: TGI): 29.5 µM
